Values quoted from earlier work in patent publication US20220023398A1, “COMPOSITIONS AND METHODS FOR TREATING THYROID DISEASE” (Script Essentials, LLC, priority 2015, published 2022).

Legend:
[1] = supplementation, even in selenium sufficient patients
[2] = after oral supplementation
[3] = participants with low T3, normal T4

SMILES | thyroid peroxidase (TPO) antibody levels in the blood [1] | TSH [2, 3] | reverse T3 (rT3) [2, 3] | levels of T3 ([2]; participants with low T3, normal T4, mild to moderate zinc deficiency)
[Se] [selenium] | reduced | – | – | –
O=S(=O)([O-])[O-].[Zn+2] [zinc sulfate] | – | normalized | decreased | normalized
